From patent publication US7855209B2, “Allosteric modulators of the A1 adenosine receptor” (King Pharmaceuticals Research and Development, Inc., priority 2006, dated 2010)

What was measured:
[1] = target: T1, human A1-adenosine receptor (Homo sapiens, UniProt P30542); test: Functional assay measuring the cAMP level in CHO cells expressing the human A1-adenosine receptor; type: cell-based
T1 construct: expressed in transfected cells; host or cells: CHO cells (hCHO-A1 clone)
T1 sequence (P30542 1-326): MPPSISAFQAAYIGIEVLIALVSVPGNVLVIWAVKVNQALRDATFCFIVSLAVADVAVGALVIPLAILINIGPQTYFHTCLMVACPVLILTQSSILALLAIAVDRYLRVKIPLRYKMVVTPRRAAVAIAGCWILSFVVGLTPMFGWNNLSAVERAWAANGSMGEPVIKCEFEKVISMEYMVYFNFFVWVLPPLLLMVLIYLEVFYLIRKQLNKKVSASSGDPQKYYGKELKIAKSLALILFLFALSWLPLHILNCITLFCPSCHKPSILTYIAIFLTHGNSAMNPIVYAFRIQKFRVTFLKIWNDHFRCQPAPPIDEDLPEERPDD
Experimental: Measurement of cAMP Enhancement in CHO Cells (Functional Assay):
Allosteric enhancement is measured as the action of a test compound at different concentrations (0.01, 0.1, 1 and 10 μM) to reduce the cAMP content of hCHO-A1 cells. To initiate an experiment, growth medium is removed from the 12-well plates and cells are washed once with warm Hanks' buffered saline. The wash solution is then removed and replaced with fresh Hanks' solution containing forskolin (1 μM), rolipram (20 μM), N^6-cyclopentyladenosine (CPA, 0.01 nM), adenosine deaminase (2 U/mL), and the test compound. Forskolin is used to stimulate the activity of adenylyl cyclase, rolipram to inhibit cAMP phosphodiesterase, adenosine deaminase to degrade endogenous adenosine, and CPA to cause a small increase of the number of activated adenosine receptors. […] The content of cAMP in acidified extracts of cells is determined by radioimmunoassay as previously described (Kollias-Baker et al. J. Pharmacol. Exp. Ther. 1997, 281, 761-768). Because the magnitude of the effects of allosteric modulators on hCHO-A1 cells change subtly with passage number and differ slightly among different aliquots of cells, the actions of the test compounds and the action of a reference compound (PD 81,723) are assessed in each experiment. […]

[2] = target: T1, human A1-adenosine receptor; test: Saturation binding of [3H]CCPA to hCHO-A1 membranes (BMAX)
Experimental: Membrane Preparation from CHO Cells Transfected with the Human Recombinant A1, A2A and A3 Adenosine Receptors:
The hCHO-A1, hCHO-A2A and hCHO-A3 cell clones are grown adherently and maintained in Dulbecco's modified Eagle's medium with nutrient mixture F12, containing 10% fetal calf serum, penicillin (100 U/mL), streptomycin (100 μg/mL), L-glutamine (2 mM), geneticine (G418, 0.2 mg/mL) at 37° C. in 5% CO2/95% air (Klotz et al. Naunyn-Schmied. Arch Pharm. 1998, 357, 1-9). Cells are split two or three times weekly at a ratio of between 1:5 and 1:10. For membrane preparation the culture medium is removed. […] The protein concentration is determined according to a Bio-Rad method (Bradford, 1976) with bovine albumin as a standard reference. […]
To determine the effect of the compounds of the present invention on the binding to A1, A2A and A3 receptors, membranes from hCHO-A1, hCHO-A2A, hCHO-A3 are incubated in a buffer solution in the absence and in the presence of the examined compounds. […] Bound and free radioactivity are separated by filtering the assay mixture through Whatman GF/B glass fibre filters using a Micro-mate 196 cell harvester (Packard Instrument Company). The filter bound radioactivity was counted on Top Count Microplate Scintillation Counter (efficacy 57%) with Micro-Scint 20. […]

Compound: Nc1scc(CN2CCN(c3ccc(Cl)cc3)CC2)c1C(=O)c1ccc(Cl)cc1 [Example 4, {2-Amino-4-[4-((4-chlorophenyl)piperazin-1-yl)methyl]thiophen-3-yl}(4-chlorophenyl)methanone]
- IC50 [1]: ~100 nM
- increase of the BMAX value of the agonist [3H]CCPA ([2]; at 10 μM concentration, human A1 adenosine receptors): up to 600%

Compound: Nc1scc(CN2CCC3(CC2)Oc2cccc(F)c2O3)c1C(=O)c1ccc(Cl)cc1 [Example 60, {2-Amino-4-(4-fluorospiro[benzo[d][1,3]-dioxole-2,4′-piperidine]-1′-ylmethyl)thiophen-3-yl}(4-chlorophenyl)methanone]
- increase in the BMAX value of the agonist [3H]CCPA [2]: about 6 fold

Compound: Cc1sc(N)c(C(=O)c2ccc(Cl)cc2)c1CN1CCN(c2cccc(F)c2)CC1 [Example 88, {2-Amino-4-[(4-(3-fluorophenyl)piperazin-1-yl)methyl]-5-methylthiophen-3-yl}(4-chlorophenyl)methanone]
- melting point: 140 to 141 °C
